Patent publication US20250250302A1, “SYNTHESIS OF SELF-ASSEMBLING ARTIFICIAL PROTEINS UTILIZING A HOST-GUEST SYSTEM AND USES THEREOF” (Indian Institute of Science Education and Research, Pune …, priority 2024, published 2025)

Assay: solubility test of α, β, and γcyclodextrin in water
Details: compared with β cyclodextrin

OC[C@H]1O[C@@H]2O[C@H]3[C@H](O)[C@@H](O)[C@@H](O[C@H]4[C@H](O)[C@@H](O)[C@@H](O[C@H]5[C@H](O)[C@@H](O)[C@@H](O[C@H]6[C@H](O)[C@@H](O)[C@@H](O[C@H]7[C@H](O)[C@@H](O)[C@@H](O[C@H]1[C@H](O)[C@H]2O)O[C@@H]7CO)O[C@@H]6CO)O[C@@H]5CO)O[C@@H]4CO)O[C@@H]3CO [a]
solubility in water: better solubility in water compared to β cyclodextrin
